Test results as given in ChEMBL document CHEMBL1773001, “Broad-spectrum antiviral activity including human immunodeficiency and hepatitis C viruses mediated by a novel retinoid thiosemicarbazone derivative” (Eur J Med Chem, 2011).
Activity calls are given as the source filed them. The rule behind the calls is not given here.

Legend:
[1] = Selectivity index, ratio of CC50 for human Huh7ET cells infected with Hepatitis C virus to EC50 for Hepatitis C virus by RT-PCR; format: toxicity, cell-based, Huh-7; conditions: read-out: Selectivity Index
Hepatitis C virus [2] = test: Antiviral activity against Hepatitis C virus infected in human Huh7ET cells assessed as inhibition of viral replication by luciferase reporter gene assay; format: functional, organism-based, Hepacivirus hominis; conditions: Huh-7
Hepatitis C virus [3] = test: Antiviral activity against Hepatitis C virus infected in human Huh7ET cells assessed as viral RNA level by RT-PCR; format: functional, organism-based, Hepacivirus hominis; conditions: Huh-7; for Activity: Hepacivirus hominis
[4] = Cytotoxicity against human Huh7ET cells infected with Hepatitis C virus assessed as ribosomal RNA level by RT-PCR; format: cell-based, Huh-7
[5] = Selectivity index, ratio of CC50 for human Huh7ET cells infected with Hepatitis C virus to EC50 for Hepatitis C virus by luciferase reporter gene assay; format: toxicity, cell-based, Huh-7; conditions: read-out: Selectivity Index
[6] = Selectivity index, ratio of CC90 for human Huh7ET cells infected with Hepatitis C virus to EC90 for Hepatitis C virus by luciferase reporter gene assay; format: toxicity, cell-based, Huh-7; conditions: read-out: Selectivity Index
Human alphaherpesvirus 3 [7] = test: Antiviral activity against Varicella-zoster virus Ellen infected in 1 hr pretreated human HFF cells assessed as reduction in viral-induced cytopathic effect by neutral red uptake assay; format: functional, organism-based; conditions: Human alphaherpesvirus 3, Ellen
Human betaherpesvirus 5 [8] = test: Antiviral activity against Human cytomegalovirus (strain AD169) infected in 1 hr pretreated human HFF cells assessed as reduction in viral-induced cytopathic effect by neutral red uptake assay; format: functional, organism-based; conditions: Human betaherpesvirus 5, AD169, HFF
[9] = Cytotoxicity against human HFF cells infected with Varicella-zoster virus Ellen assessed as viable cells by neutral red uptake assay; format: cell-based
[10] = Cytotoxicity against human HFF cells infected with Human cytomegalovirus AD169 assessed as viable cells by neutral red uptake assay; format: cell-based
[11] = Antiviral activity against Cowpox virus (Brighton Red) infected in human HFF cells assessed as reduction in viral-induced cytopathic effect by neutral red uptake assay; format: functional, cell-based
Vaccinia virus = test: Antiviral activity against Vaccinia virus Copenhagen infected in human HFF cells assessed as reduction in viral-induced cytopathic effect by neutral red uptake assay; format: functional, organism-based, Orthopoxvirus vaccinia
[12] = Cytotoxicity against human HFF cells infected with Cowpox virus (Brighton Red) assessed as viable cells by neutral red uptake assay; format: cell-based
[13] = Cytotoxicity against human HFF cells infected with Vaccinia virus Copenhagen assessed as viable cells by neutral red uptake assay; format: cell-based
[14] = Selectivity index, ratio of CC50 for human HFF cells infected with Cowpox virus (Brighton Red) to EC50 for Cowpox virus (Brighton Red); format: toxicity, cell-based; conditions: read-out: Selectivity Index
[15] = Selectivity index, ratio of CC50 for human HFF cells infected with Cowpox virus (Brighton Red) to EC50 for Vaccinia virus Copenhagen; format: toxicity, cell-based; conditions: read-out: Selectivity Index
[16] = Selectivity index, ratio of CC50 for human HFF cells infected with […] to EC50 for Human cytomegalovirus AD169; format: toxicity, cell-based; conditions: read-out: Selectivity Index
[17] = Selectivity index, ratio of CC90 for human Huh7ET cells infected with Hepatitis C virus to EC90 for Hepatitis C virus by RT-PCR; format: toxicity, cell-based, Huh-7; conditions: read-out: Selectivity Index
[18] = system: Human immunodeficiency virus 1; test: Antiviral activity against Human immunodeficiency virus 1 LAV1 assessed as reduction in RT activity by [3H]-dTTP incorporation assay; format: functional, organism-based
[19] = Cytotoxicity against human PBMC infected with Human immunodeficiency virus 1 LAV1 by MTS assay; format: cell-based
[20] = Selectivity index, ratio of CC50 for human PBMC infected with Human immunodeficiency virus 1 LAV1 to EC50 for Human immunodeficiency virus 1 LAV1
[21] = Selectivity index, ratio of CC50 for human HFF cells infected with […] to EC50 for Varicella-zoster virus Ellen; format: toxicity, cell-based; conditions: read-out: Selectivity Index
Hepatitis C virus [22] = test: Antiviral activity against Hepatitis C virus infected in human Huh7ET cells assessed as inhibition of viral replication at 20 uM by luciferase reporter gene assay; format: functional, Hepacivirus hominis; conditions: Huh-7
Human alphaherpesvirus 3 [23] = test: Antiviral activity against Varicella-zoster virus Ellen infected in human HFF cells assessed as inhibition of viral replication after 1 hr by plaque reduction assay; format: functional, organism-based; conditions: Human alphaherpesvirus 3, Ellen
Human betaherpesvirus 5 [24] = test: Antiviral activity against Human cytomegalovirus (strain AD169) infected in human HFF cells assessed inhibition of viral replication after 1 hr by plaque reduction assay; format: functional, organism-based; conditions: Human betaherpesvirus 5, AD169, HFF
[25] = Cytotoxicity against human HFF cells infected with Varicella-zoster virus Ellen assessed as viable cells after 1 hr by plaque reduction assay; format: cell-based
[26] = Cytotoxicity against human HFF cells infected with Human cytomegalovirus AD169 assessed as viable cells after 1 hr by plaque reduction assay; format: cell-based
[27] = Selectivity index, ratio of CC50 for human HFF cells infected with […] to EC50 for Varicella-zoster virus Ellen after 1 hr by plaque reduction assay; format: toxicity, cell-based; conditions: read-out: Selectivity Index
[28] = Selectivity index, ratio of CC50 for human HFF cells infected with […] to EC50 for Human cytomegalovirus AD169 after 1 hr by plaque reduction assay; format: toxicity, cell-based; conditions: read-out: Selectivity Index
[29] = Orthopoxvirus vaccinia, Copenhagen, HFF
[30] = Orthopoxvirus vaccinia, Copenhagen, HFF, read-out: EC50

SMILES | selectivity ratio [1] | EC50 (Hepatitis C virus [2]) | EC90 (Hepatitis C virus [2]) | EC50 (Hepatitis C virus [3]) | EC90 (Hepatitis C virus [3]) | CC50 [4] | CC90 [4] | selectivity ratio [5] | selectivity ratio [6] | EC50 (Human alphaherpesvirus 3 [7]) | EC50 (Human betaherpesvirus 5 [8]) | CC50 [10] | EC50 [11] | EC90 [11] | EC90 (Vaccinia virus; [29]) | EC50 (Vaccinia virus; [30]) | CC50 [12] | CC50 [13] | selectivity ratio [14] | selectivity ratio [15] | also measured
NC(=S)N/N=C/c1ccc(Br)cc1F | 48.8 | 280 nM | 5.93 µM | 250 nM | > 20000 nM | ≥ 12.2 µM | > 20 µM | > 71.4 | > 3.4 | > 300 µM | > 300 µM | > 300 µM | 115 µM | 294 µM | 239 µM | 110 µM | > 300 µM | > 300 µM | > 2.6 | > 2.7 | EC90 (Human alphaherpesvirus 3 [7]): > 300 µM; EC90 (Human betaherpesvirus 5 [8]): > 300 µM; CC50 [9]: > 300 µM
Nc1nc2c(ncn2COC(CO)CO)c(=O)[nH]1 [GANCICLOVIR] | – | – | – | – | – | – | – | – | – | – | 0.04 µM | – | – | – | – | – | – | – | – | – | EC90 (Vaccinia virus; Orthopoxvirus vaccinia): inactive; EC50 (Vaccinia virus; hff): Not Active
NC(=S)N/N=C/c1ccc(OC(F)(F)F)cc1 | 18 | 80 nM | 0.5 µM | 80 nM | 610 nM | 1.44 µM | ≥ 5.08 µM | 111 | > 40 | – | > 60 µM | 290 µM | 54.3 µM | > 300 µM | > 300 µM | 250 µM | > 300 µM | > 300 µM | > 5.5 | > 1.2 | EC90 (Human betaherpesvirus 5 [8]): > 60 µM; selectivity ratio [16]: < 4.8; selectivity ratio [17]: 8.3
Cc1cn([C@H]2C[C@H](N=[N+]=[N-])[C@@H](CO)O2)c(=O)[nH]c1=O [ZIDOVUDINE] | – | – | – | – | – | – | – | – | – | – | – | – | – | – | – | – | – | – | – | – | EC50 [18]: 4.4 nM; EC90 [18]: 0.031 µM; CC50 [19]: > 100 µM; Selectivity Index [20]: >22727
Nc1nc2c(ncn2COCCO)c(=O)[nH]1 [ACYCLOVIR] | – | – | – | – | – | – | – | – | – | 1.1 µM | – | – | – | – | – | – | – | – | – | – | CC50 [9]: > 100 µM; selectivity ratio [21]: > 90.9; EC90 (Vaccinia virus; Orthopoxvirus vaccinia): inactive; EC50 (Vaccinia virus; hff): Not Active
CN(C)c1ccc(/C=N/N=c2\[nH]c(-c3ccc(F)cc3)cs2)cc1 | – | 6320 nM | > 20 µM | – | – | – | – | > 3.2 | – | 16.6 µM | > 300 µM | > 300 µM | 36 µM | > 300 µM | 84.9 µM | 73.6 µM | > 300 µM | > 300 µM | > 8.3 | > 4.1 | Activity (Hepatitis C virus [3]): inactive; EC90 (Human alphaherpesvirus 3 [7]): 26.5 µM; EC90 (Human betaherpesvirus 5 [8]): > 300 µM; CC50 [9]: > 300 µM; selectivity ratio [21]: > 18.1
Nc1nc(O)c2ncn(COC(CO)CO)c2n1 [GANCICLOVIR] | – | – | – | – | – | – | – | – | – | – | – | > 100 µM | – | – | – | – | – | – | – | – | selectivity ratio [16]: > 2500
CCCCCCCCCCCCCCS/C(N)=N/N=C/c1ccc(N(C)C)cc1 | – | – | – | – | – | – | – | – | – | – | – | – | – | – | – | – | – | – | – | – | inhibition at 20 µM (Hepatitis C virus [22]): 31.4%; Activity (Hepatitis C virus [3]): inactive
Nc1ccn(C[C@@H](CO)OCP(=O)(O)O)c(=O)n1 [CIDOFOVIR] | – | – | – | – | – | – | – | – | – | – | – | – | 6.7 µM | 18.4 µM | 20 µM | 9.8 µM | > 317 µM | > 317 µM | > 47.3 | > 32.3 | –
CC1=C(/C=C/C(C)=C/C=C/C(C)=C/C=N/[N-]C(=S)[N-]C(=S)[N-]/N=C/C=C(C)/C=C/C=C(C)/C=C/C2=C(C)CCCC2(C)C)C(C)(C)CCC1.O.[Na+].[Na+].[Na+] | 31 | 850 nM | 4 µM | 360 nM | 1970 nM | 11.2 µM | > 20 µM | 15.2 | > 5 | – | – | – | > 2.4 µM | > 2.4 µM | > 2.4 µM | > 2.4 µM | 11.8 µM | 11.8 µM | < 4.9 | > 4.9 | EC50 (Human alphaherpesvirus 3 [23]): 4.7 µM; EC90 (Human alphaherpesvirus 3 [23]): 17 µM; EC50 (Human betaherpesvirus 5 [24]): 2400 nM; EC90 (Human betaherpesvirus 5 [24]): > 4 µM; CC50 at 1 h [25]: 33.3 µM; CC50 at 1 h [26]: 13.6 µM; selectivity ratio at 1 h [27]: 7.1; selectivity ratio at 1 h [28]: 5.7; EC50 [18]: 1400 nM; EC90 [18]: 6.5 µM; CC50 [19]: 28.5 µM; Selectivity Index [20]: 5.2; selectivity ratio [17]: > 10.2
